Where two headings read alike, the source gives them in different places.
Columns and labels:
[1] = tested on: H1975 cells; test: Cytostatic activity by MTT method, H1975 cells; assay type: cell-based; details: read-out: H1975 cells (IC50/nM)
[2] = tested on: NIH3T3 cells; test: Cytotoxicity by MTT method, NIH3T3 cells; assay type: cell-based; details: read-out: NIH3T3 cells MTT assay (IC50/nM);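 note: cells grown in 96-well plates with compound for 72 h, then given MTT for a further 4 h at 37 °C under 5% CO2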
[3] = target: EGFR WT kinase (Homo sapiens (Human), UniProt P00533); test: Wild type EGFR kinase inhibition test (z-lyte); assay type: biochemical; details: 10 μM ATP
[4] = tested on: H1975 cells; test: ELISA screening EGFR T790M inhibitor for cell activity, H1975 cells; assay type: cell-based; details: ELISA; for IC50: compound 1 h, read-out: H1975 cells (IC50/nM); for Selective inhibitory activities of target on cellular level [IC50 (A431 cells)/IC50 (H1975 cells)]: ratio of IC50 values
[5] = tested on: A431 cells; test: ELISA cell activity, EGF-stimulated A431 cells; assay type: cell-based; details: ELISA, compound 1 h then EGF 45 minutes, read-out: A431 cells (IC50/nM);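 note: Serum-starved A431 cells pretreated with compound for 1 h, then stimulated with EGF for 45 min, lysates read by ELISA (OD450 minus OD570), EGF-only wells as control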
[6] = Mus musculus, NIH3T3, cytotoxicity, MTT, 72 h

Sequence of EGFR WT kinase (P00533 25-1210): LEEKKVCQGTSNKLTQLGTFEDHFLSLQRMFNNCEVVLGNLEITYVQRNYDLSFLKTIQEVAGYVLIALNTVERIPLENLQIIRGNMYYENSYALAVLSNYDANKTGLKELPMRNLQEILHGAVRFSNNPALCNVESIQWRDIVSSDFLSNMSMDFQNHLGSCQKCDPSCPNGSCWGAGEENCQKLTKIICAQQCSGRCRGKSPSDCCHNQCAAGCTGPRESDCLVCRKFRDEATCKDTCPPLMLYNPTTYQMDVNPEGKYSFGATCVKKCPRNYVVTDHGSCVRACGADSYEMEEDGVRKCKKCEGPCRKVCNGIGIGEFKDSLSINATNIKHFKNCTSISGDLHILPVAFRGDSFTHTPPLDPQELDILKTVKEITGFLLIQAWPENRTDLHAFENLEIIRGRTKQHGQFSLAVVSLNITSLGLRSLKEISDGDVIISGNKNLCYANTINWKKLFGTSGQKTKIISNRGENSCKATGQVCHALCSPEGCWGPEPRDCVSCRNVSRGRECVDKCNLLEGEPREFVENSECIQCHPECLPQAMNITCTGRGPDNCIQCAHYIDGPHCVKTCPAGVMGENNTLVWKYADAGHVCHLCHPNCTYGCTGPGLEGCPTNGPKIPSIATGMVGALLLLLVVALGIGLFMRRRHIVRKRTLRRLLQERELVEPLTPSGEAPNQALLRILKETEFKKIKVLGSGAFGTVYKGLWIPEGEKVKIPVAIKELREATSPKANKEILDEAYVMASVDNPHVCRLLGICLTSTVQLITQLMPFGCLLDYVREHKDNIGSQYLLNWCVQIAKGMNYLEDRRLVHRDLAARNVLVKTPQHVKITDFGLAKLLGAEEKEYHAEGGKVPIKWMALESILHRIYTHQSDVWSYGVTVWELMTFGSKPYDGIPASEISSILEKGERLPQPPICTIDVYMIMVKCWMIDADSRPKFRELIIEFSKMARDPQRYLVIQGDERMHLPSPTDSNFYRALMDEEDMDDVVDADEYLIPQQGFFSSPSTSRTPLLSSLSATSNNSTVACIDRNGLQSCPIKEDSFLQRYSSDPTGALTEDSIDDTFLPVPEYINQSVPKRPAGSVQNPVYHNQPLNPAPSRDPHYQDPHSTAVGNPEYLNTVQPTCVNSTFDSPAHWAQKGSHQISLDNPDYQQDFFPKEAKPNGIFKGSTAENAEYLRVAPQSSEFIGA

Row | IC50 [3] [nM] | Selective inhibitory activities of target on cellular level [IC50 (A431 cells)/IC50 (H1975 cells)] [4] | Compound | IC50 ([2]; cytotoxicity, MTT, 72 h) [nM] | also measured
1 | – | – | CN(C)C/C=C/C(=O)Nc1cc2c(Nc3ccc(F)c(Cl)c3)ncnc2cc1O[C@H]1CCOC1 [BIBW2992, Afatinib, reference compound] | – | IC50 ([1]; Homo sapiens, NCI-H1975, 72 h): 88 nM; IC50 ([2]; Mus musculus, NIH3T3, 72 h): 2750 nM
2 | – | – | C=CC(=O)Nc1cc(Nc2ncc(Cl)c(-c3cnc4c(ccn4C)c3)n2)c(OC)cc1N1CCN(C)CC1 [Compound Z-3, N-(5-(5-chloro-4-(1-methyl-1H-pyrrolo[2,3-b]pyridin-5-yl)pyrimidin-2-amino)-4-methoxy-2-(4-methylpiperazin-1-yl)phenyl)acrylamide] | – | IC50 [2, 6]: 8160 nM
3 | 45 | – | C=CC(=O)Nc1cc(Nc2nccc(-c3cnc4c(cnn4C)c3)n2)c(OC)cc1N1CCC(N(C)C)CC1 [Compound Z-4, N-(2-(4-(dimethylamino)piperidin-1-yl)-4-methoxy-5-(4-(1-methyl-1H-pyrazolo[3,4-b]pyridin-5-yl)pyrimidin-2-ylamino)phenyl)acrylamide] | – | –
4 | 105 | – | C=CC(=O)Nc1cc(Nc2nccc(-c3cnc4c(cnn4C)c3)n2)c(OC)cc1N1CCN(C)CC1 [Compound Z-5, N-(4-methoxy-5-(4-(1-methyl-1H-pyrazolo[3,4-b]pyridin-5-yl)pyrimidin-2-ylamino)-2-(4-methylpiperazin-1-yl)phenyl)acrylamide] | – | –
5 | – | – | C=CC(=O)Nc1cc(Nc2nccc(-c3cnn(C)c3)n2)c(OC)cc1N1CCC(N(C)C)CC1 [Compound Z-17, N-(2-(4-(dimethylamino)piperidin-1-yl)-4-methoxy-5-((4-(1-methyl-1H-pyrazol-4-yl)pyrimidin-2-yl)amino)phenyl)acrylamide] | – | IC50 ([4]; Homo sapiens, NCI-H1975): 77 nM; IC50 ([5]; Homo sapiens, A-431): 3080 nM
6 | 197 | – | C=CC(=O)Nc1cc(Nc2nccc(-c3cnn(C)c3)n2)c(OC)cc1N(C)CCN(C)C [Compound Z-18, N-(2-((2-(dimethylamino)ethyl)(methyl)amino)-4-methoxy-5-((4-(1-methyl-1H-pyrazol-4-yl)pyrimidin-2-yl)amino)phenyl)acrylamide] | – | –
7 | 4 | 7.6 | C=CC(=O)Nc1cc(Nc2ncc(F)c(-c3cnc4c(ccn4C)c3)n2)c(OC)cc1N(C)CCN(C)C [Compound Z-20, N-(2-((2-(dimethylamino)ethyl)(methyl)amino)-5-((5-fluoro-4-(1-methyl-1H-pyrrolo[2,3-b]pyridin-5-yl)pyrimidin-2-yl)amino)-4-methoxyphenyl)acrylamide] | – | IC50 ([4]; Homo sapiens, NCI-H1975): 22 nM; IC50 ([5]; Homo sapiens, A-431): 167 nM
8 | 9 | 10.3 | C=CC(=O)Nc1cc(Nc2ncc(OC)c(-c3cnc4c(ccn4C)c3)n2)c(OC)cc1N(C)CCN(C)C [Compound Z-21, N-(2-((2-(dimethylamino)ethyl)(methyl)amino)-4-methoxy-5-((5-methoxy-4-(1-methyl-1H-pyrrolo[2,3-b]pyridin-5-yl)pyrimidin-2-yl)amino)phenyl)acrylamide] | – | IC50 ([4]; Homo sapiens, NCI-H1975): 11 nM; IC50 ([5]; Homo sapiens, A-431): 113 nM
9 | 61 | – | C=CC(=O)Nc1cc(Nc2nccc(-c3cnc4c(ccn4C)c3)n2)c(OC)cc1N1CCC(N(C)C)CC1 [Compound Z-25] | 6910 | –
10 | 114 | – | C=CC(=O)Nc1cc(Nc2nccc(-c3cnc4c(ccn4C)c3)n2)c(OC)cc1N1CCN(C)CC1 [Compound Z-26] | > 10000 | –
11 | 118 | – | C=CC(=O)Nc1cc(Nc2ncc(F)c(-c3cnc4c(ccn4C)c3)n2)c(OC)cc1N1CCC(N(C)C)CC1 [Compound Z-29] | – | –
12 | 4 | – | C=CC(=O)Nc1cc(Nc2ncc(C(=O)OC)c(-c3cnc4c(ccn4C)c3)n2)c(OC)cc1N(C)CCN(C)C [Compound Z-32] | > 10000 | –
13 | – | – | C=CC(=O)Nc1cc(Nc2nccc(-c3cnc4[nH]ccc4c3)n2)c(OC)cc1N1CC(N(C)C)C1 [Compound Z-33] | > 10000 | –
14 | 89 | 8.4 | C=CC(=O)Nc1cc(Nc2ncc(F)c(-c3cnc4c(cnn4C)c3)n2)c(OC)cc1N1CCC(N(C)C)CC1 [Compound Z-37] | – | IC50 [4]: 57 nM; IC50 [5]: 481 nM
15 | 35 | – | C=CC(=O)Nc1cc(Nc2ncc(OC)c(-c3cnc4c(cnn4C)c3)n2)c(OC)cc1N1CCC(N(C)C)CC1 [Compound Z-38] | > 10000 | –
16 | 233 | 30.5 | C=CC(=O)Nc1cc(Nc2ncc(Cl)c(-c3cnc4c(cnn4C)c3)n2)c(OC)cc1N1CCC(N(C)C)CC1 [Compound Z-40] | – | IC50 [4]: 70 nM; IC50 [5]: 2140 nM
17 | 20 | 30.8 | C=CC(=O)Nc1cc(Nc2ncc(F)c(-c3cnc4c(cnn4C)c3)n2)c(OC)cc1N(C)CCN(C)C [Compound Z-41] | > 10000 | IC50 [4]: 31 nM; IC50 [5]: 954 nM

Row | IC50 [3] [nM] | Selective inhibitory activities of target on cellular level [IC50 (A431 cells)/IC50 (H1975 cells)] [4] | Compound | IC50 ([2]; cytotoxicity, MTT, 72 h) [nM] | also measured
18 | – | – | C=CC(=O)Nc1cc(Nc2nccc(-c3cnc4c(c3)c(Cl)cn4C)n2)c(OC)cc1N(C)CCN(C)C [Compound Z-54] | – | IC50 ([1]; MTT, 72 h): 3 nM; IC50 [4]: 4 nM
19 | 8 | 6.8 | C=CC(=O)Nc1cc(Nc2nccc(-c3ccc4c(ccn4C)c3)n2)c(OC)cc1N(C)CCN(C)C [Compound Z-87] | – | IC50 [4]: 31 nM; IC50 [5]: 210 nM
20 | 11 | 24.9 | C=CC(=O)Nc1cc(Nc2ncc(Cl)c(-c3ccc4c(ccn4C)c3)n2)c(OC)cc1N(C)CCN(C)C [Compound Z-88] | – | IC50 [4]: 18 nM; IC50 [5]: 449 nM
21 | – | – | C=CC(=O)Nc1cc(Nc2ncc(F)c(-c3cnn(C)c3)n2)c(OC)cc1N(C)CCN(C)C [Compound Z-93, N-(2-((2-(dimethylamino)ethyl)(methyl)amino)-5-(5-fluoro-4-(1-methyl-1H-pyrazol-4-yl)pyrimidin-2-ylamino)-4-methoxyphenyl)acrylamide] | – | IC50 [2, 6]: > 10000 nM
22 | 41 | 10.3 | C=CC(=O)Nc1cc(Nc2ncc(Cl)c(-c3cnn(C4CCNCC4)c3)n2)c(OC)cc1N1CCC(N(C)C)CC1 [Compound Z-96, N-(5-(5-chloro-4-(1-(piperidin-4-yl)-1H-pyrazol-4-yl)pyrimidin-2-ylamino)-2-(4-(dimethylamino)piperidin-1-yl)-4-methoxyphenyl)acrylamide] | – | IC50 ([4]; Homo sapiens, NCI-H1975): 94 nM; IC50 ([5]; Homo sapiens, A-431): 969 nM
23 | 341 | 72.1 | C=CC(=O)Nc1cc(Nc2ncc(Cl)c(-c3cnn(C)c3C)n2)c(OC)cc1N1CCC(N(C)C)CC1 [Compound Z-97, N-(5-(5-chloro-4-(1,5-dimethyl-1H-pyrazol-4-yl)pyrimidin-2-ylamino)-2-(4-(dimethylamino)piperidin-1-yl)-4-methoxyphenyl)acrylamide] | – | IC50 ([4]; Homo sapiens, NCI-H1975): 104 nM; IC50 ([5]; Homo sapiens, A-431): 7500 nM
24 | – | – | C=CC(=O)Nc1cc(Nc2ncc(Cl)c(-c3cnn(C(F)F)c3)n2)c(OC)cc1N1CCC(N(C)C)CC1 [Compound Z-101, N-(5-(5-chloro-4-(1-(difluoromethyl)-1H-pyrazol-4-yl)pyrimidin-2-ylamino)-2-(4-(dimethylamino)piperidin-1-yl)-4-methoxyphenyl)acrylamide] | – | IC50 ([1]; Homo sapiens, NCI-H1975, MTT, 72 h): 43 nM; IC50 [2, 6]: 3430 nM
25 | 7 | 6.5 | C=CC(=O)Nc1cc(Nc2nccc(-c3cnc4c(ccn4C)c3)n2)c(OC)cc1N(C)CCN(C)CC [Compound Z-105] | 9360 | IC50 [4]: 28 nM; IC50 [5]: 181 nM
26 | 28 | 5.1 | C=CC(=O)Nc1cc(Nc2ncc(Cl)c(-c3cnc4c(ccn4C)c3)n2)c(OC)cc1N(C)CCN(C)CC [Compound Z-109] | 6000 | IC50 [4]: 85 nM; IC50 [5]: 434 nM
27 | – | – | C=CC(=O)Nc1cc(Nc2ncc(Cl)c(-c3cnc4c(ccn4C)c3)n2)c(OC)cc1N(C)CCN(CC)CC [Compound Z-110] | 6840 | –
28 | – | – | C=CC(=O)Nc1cc(Nc2ncc(Cl)c(-c3cnc4c(ccn4C)c3)n2)c(OC)cc1N(C)CCCN(C)C [Compound Z-111] | 4010 | –
29 | 116 | – | C=CC(=O)Nc1cc(Nc2ncc(Cl)c(-c3cnc4c(ccn4C)c3)n2)c(OC)cc1NCCCN(C)C [Compound Z-114] | 8280 | –
30 | 37 | – | C=CC(=O)Nc1cc(Nc2ncc(Cl)c(-c3cnc4c(ccn4C)c3)n2)c(OC)cc1N(C)CCNC [Compound Z-116] | > 10000 | –
31 | 6 | – | C=CC(=O)Nc1cc(Nc2ncc(F)c(-c3cnc4c(ccn4C)c3)n2)c(OC)cc1OCCN(C)C [Compound Z-118] | 3320 | –
32 | 14 | – | C=CC(=O)Nc1cc(Nc2ncc(Cl)c(-c3cnc4c(c3)c(Cl)cn4C)n2)c(OC)cc1N(C)CCN(C)C [Compound Z-121] | 8530 | –
33 | 25 | – | C=CC(=O)Nc1cc(Nc2ncc(F)c(-c3cnc4c(c3)c(Cl)cn4C)n2)c(OC)cc1N1CCC(N(C)C)CC1 [Compound Z-122] | – | –

Row | Compound | IC50 [3] [nM] | Selective inhibitory activities of target on cellular level [IC50 (A431 cells)/IC50 (H1975 cells)] [4] | IC50 ([2]; cytotoxicity, MTT, 72 h) [nM] | also measured
34 | C=CC(=O)Nc1cc(Nc2ncc(Cl)c(-c3cnc4c(ccn4C)c3)n2)c(OC)cc1N(C)CCN(C)C [Compound Z-1, N-(5-(5-chloro-4-(1-methyl-1H-pyrrolo[2,3-b]pyridin-5-yl)pyrimidin-2-amino)-2-((2-(dimethylamino)ethyl)methylamino)-4-methoxyphenyl)acrylamide] | 25 | 15.7 | 6590 | IC50 [4]: 30 nM; IC50 [5]: 471 nM
